The numbers were not newly measured in patent publication US20220024925A1, “Deuterium-Substituted 7-Substituted-2-(Benzylamino)-6-Ozopurine Compounds and Uses Thereof” (Acurx Pharmaceuticals LLC, priority 2020, published 2022), which cites them from elsewhere.

The subject of data set [1] is C. diff. Particulars: stated in words only; see Wright et al., U.S. Pat. No. 8,796,292.
The subject of data set [2] is other, intestinal Gram-positive anaerobes. To be noted: stated in words only; see Wright et al., U.S. Pat. No. 8,796,292.

For the molecule `O=c1[nH]c(NCc2ccc(Cl)c(Cl)c2)nc2ncn(CCN3CCOCC3)c12` [Compound I-1, 2-((3,4-dichlorobenzyl)amino)-7-(2-morpholinoethyl)-1,7-dihydro-6H-purin-6-one], the “activity against the growth of the intestinal anaerobe C. diff” value in data set [1] is recorded as “potent activity”. Also, the “activity against other, intestinal Gram-positive anaerobes” value in data set [2] was “weak activity”.
